Measured values as given in US20120020915A1, “Compounds and Methods for Treating Cancer and Diseases of the Central Nervous System” (QUEENS UNIVERSITY AT KINGSTON, priority 2007, published 2012).
Where a name gives a salt, the structure may show the parent alone. Read-outs that look alike come from different tables or passages of the source.

Legend:
[1] = target: T1, HO-2 (rat brain) (Rattus norvegicus, UniProt P23711); experiment: HO enzymatic activity, rat brain microsomal fraction (CO formation from methemalbumin); assay type: biochemical
T1 construct: brain microsomes were used as a source of HO-2; from tissue; host or cells: brain microsomal fraction of adult male Sprague-Dawley rats
T1 sequence (P23711 1-315): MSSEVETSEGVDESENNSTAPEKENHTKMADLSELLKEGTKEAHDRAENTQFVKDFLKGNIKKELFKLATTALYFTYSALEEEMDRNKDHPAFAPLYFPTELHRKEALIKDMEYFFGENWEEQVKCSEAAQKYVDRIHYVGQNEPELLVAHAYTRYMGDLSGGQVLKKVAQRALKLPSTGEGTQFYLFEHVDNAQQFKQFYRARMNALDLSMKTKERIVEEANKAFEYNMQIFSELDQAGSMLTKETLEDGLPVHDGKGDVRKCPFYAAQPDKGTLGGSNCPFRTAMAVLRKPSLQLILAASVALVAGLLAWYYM
Procedure: (§1) Incubations for HO activity analysis were done under conditions for which the rate of CO formation (pmol CO×min^−1×mg protein^−1) was linear with respect to time and microsomal protein concentration. Briefly, reaction mixtures (150 μL) consisting of 100 mM phosphate buffer (pH 7.4), 50 μM methemalbumin, and 1 mg/mL protein were pre-incubated with the inhibitors at final concentrations ranging from 0.1-100 μM for 10 minutes at 37° C. Reactions were initiated by adding NADPH at a final concentration of 1 mM and incubations were performed for an additional 15 minutes at 37° C.
(§2) Incubations for HO activity analysis were done under conditions for which the rate of CO formation (pmol CO/mg protein/minute) was linear with respect to time and microsomal protein concentration. Briefly, reaction mixtures (150 μL) consisting of 100 mM phosphate buffer (pH 7.4), 50 μM methemalbumin and 1 mg/mL protein were pre-incubated with the vehicle (ethanol or water in which the inhibitors were dissolved), or inhibitors at final concentrations ranging from 0.1-1000 μM for 10 minutes at 37° C. Reactions were initiated by adding β-NADPH at a final concentration of 1 mM and incubations were carried out for an additional 15 minutes at 37° C. Reactions were stopped by instantly freezing the reaction mixture on pulverized dry ice and CO formation was measured by gas chromatography using a TA 3000R Process Gas Analyzer (Trace Analytical/Ametek, Newark, Del., USA).
(§3) The values on the abscissa represent the decimal logarithm of the inhibitor's concentration (in μM), whereas the values of the activity on the ordinate are expressed as a percentage of the control experiments without inhibitor.
(§4) The IC50 values for the replicate experiments were employed to generate the reported standard deviation value.

[2] = target: T2, HO-1 (rat spleen) (Rattus norvegicus, UniProt P06762); experiment: HO enzymatic activity, rat spleen microsomal fraction (CO formation from methemalbumin); assay type: biochemical
T2 construct: Spleen microsomes were used as a source of HO-1; from tissue; host or cells: spleen microsomal fraction of adult male Sprague-Dawley rats
T2 sequence (P06762 1-289): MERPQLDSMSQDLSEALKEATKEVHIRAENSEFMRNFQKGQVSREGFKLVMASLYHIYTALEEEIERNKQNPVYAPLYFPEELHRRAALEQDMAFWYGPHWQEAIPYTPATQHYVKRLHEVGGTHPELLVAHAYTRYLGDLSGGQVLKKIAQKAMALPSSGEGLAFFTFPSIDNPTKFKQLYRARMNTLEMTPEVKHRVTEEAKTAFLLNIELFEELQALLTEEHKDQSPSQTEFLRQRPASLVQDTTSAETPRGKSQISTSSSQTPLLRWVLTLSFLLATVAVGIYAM
Procedure: as §1, §2, §3, §4

[3] = CO formation from methemalbumin, mean ± SD of replicate experiments, read-out: IC50 HO-2 (rat brain)/μM)
[4] = CO formation from methemalbumin, mean ± SD of replicate experiments, read-out: IC50 HO-1 (rat spleen/μM)
[5] = IC50 HO-2 (rat brain)/μM), CO formation from methemalbumin, mean ± SD of replicate experiments
[6] = IC50 HO-1 (rat spleen/μM), CO formation from methemalbumin, mean ± SD of replicate experiments
[7] = IC50 HO-2 (rat brain)/μM), average ± SD of replicate experiments
[8] = IC50 HO-1 (rat spleen/μM), average ± SD of replicate experiments
[9] = average ± SD of replicate experiments, read-out: IC50 HO-2 (rat brain)/μM)
[10] = average ± SD of replicate experiments, read-out: IC50 HO-1 (rat spleen/μM)

SMILES | IC50 [1, 3] [µM] | IC50 [2, 4] [µM] | further results
O=C(O)Cn1ccnc1 [QC-66, Imidazol-1-yl-acetic acid] | > 100 | > 100 | –
NCCc1c[nH]cn1 [QC-67, Histamine dihydrochloride, reference compound] | > 100 | > 100 | –
N[C@@H](Cc1c[nH]cn1)C(=O)O [QC-68, L-histidine hydrochloride monohydrate, reference compound] | > 100 | > 100 | –
CSCC[C@@H](N)C(=O)O [QC-69, D-methionine, reference compound] | > 100 | > 100 | –
Clc1ccc(CCC2(Cn3ccnc3)OCCCO2)cc1 [QC-70, 2-[2-(4-chlorophenyl)ethyl]-2-[(1H-imidazol-1-yl)methyl]-1,3-dioxane hydrochloride] | – | – | IC50 [1, 5]: > 100 µM; IC50 [2, 6]: 20 ± 4 µM
Clc1ccc(CCC2(Cn3ccnc3)O[C@H]3CCCC[C@H]3O2)cc1 (some centres unmarked) [QC-71, 1-{2-[2-(4-Chlorophenyl)-ethyl]-hexahydrobenzo[1,3]dioxol-2-ylmethyl}-1H-imidazole] | – | – | IC50 [1, 5]: > 100 µM; IC50 [2, 6]: 69 ± 7 µM
COc1ccc(CCC(=O)Cn2ccnc2)cc1 [QC-72, 1-(1H-imidazol-1-yl)-4-(4-methoxyphenyl)-2-butanone hydrochloride] | – | – | IC50 [1, 5]: 29 ± 19 µM; IC50 [2, 6]: 2.2 ± 0.9 µM
O=C(CCn1ccnc1)c1ccccc1O [QC-75, 1-(2-hydroxyphenyl)-3-imidazol-1-yl-propan-1-one] | – | – | IC50 [1, 5]: > 100 µM; IC50 [2, 6]: 25 ± 12 µM
O=C(n1ccnc1)C(F)(F)F [QC-77, N-trifluoroacetylimidazole] | > 100 | > 100 | –
CN(C)CCC(=O)c1ccc(Cl)cc1 [QC-84, 1-(4-chlorophenyl)-3-dimethylamino-propan-1-one] | – | – | IC50 [1, 5]: > 100 µM; IC50 [2, 6]: > 100 µM
O=C(CCn1ccnc1)c1ccc(Cl)cc1 [QC-85, 1-(4-chlorophenyl)-3-imidazol-1-yl-propan-1-one hydrochloride] | – | – | IC50 [1, 5]: > 100 µM; IC50 [2, 6]: 32 ± 3 µM
c1cn(CCCCn2ccnc2)cn1 [QC-88, 1,4-bis-(1H-imidazol-1-yl)butane dihydrochloride] | > 100 | > 100 | –
c1cn(CCCCCCn2ccnc2)cn1 [QC-89, 1,6-bis-(1H-imidazol-1-yl)hexane dihydrochloride] | > 100 | > 100 | –
c1ccc(CCC2(Cn3cccn3)OCCO2)cc1 [QC-95, 2-phenylethyl-2-[(1H-pyrazole-1-yl)methyl]-1,3-dioxolane hydrochloride] | > 100 | > 100 | –
O=C(CCc1ccccc1)C[n+]1ccncc1 [QC-97, 1-(4-phenyl-2-oxo-butyl)-pyrazin-1-ium bromide] | > 100 | 163 ± 10 | –
O=C(c1ccc(-n2ccnc2)cc1)C1CC1 [QC-98, Cyclopropyl-(4-imidazol-1-yl-phenyl)methanone hydrochloride] | > 100 | > 100 | –
CCCC(=O)n1ccnc1 [QC-100, N-butyrylimidazole] | > 100 | > 100 | –
O=C(NCCCn1ccnc1)Nc1ccccc1 [QC-107, 1-(3-Imidazol-1-yl-propyl)-3-phenyl-urea] | > 100 | > 100 | –
O=C(NCCCn1ccnc1)c1ccccc1 [QC-109, N-(3-Imidazol-1-yl-propyl)-benzamide] | > 100 | > 100 | –
CCOC(=O)c1nccn1CC(=O)CCc1ccccc1 [QC-110, 1-(2-Oxo-4-phenyl-butyl)-1H-imidazole-2-carboxylic acid ethyl ester hydrochloride] | – | – | IC50 [1, 5]: > 100 µM; IC50 [2, 6]: > 100 µM

SMILES | IC50 [1, 3] [µM] | IC50 [2, 4] [µM] | further results
CSc1nccn1CC(=O)CCc1ccccc1 [QC-113, 1-(2-Methylsulfanyl-imidazol-1-yl)-4-phenyl-butan-2-one] | > 100 | > 100 | –
O=C(CCc1ccccc1)Cn1ncnn1 [QC-117, 4-Phenyl-1-tetrazol-2-yl-butan-2-one hydrochloride] | 37 ± 25 | – | IC50 [2, 6]: 9.6 ± 0.2 µM
O=C(CCc1ccccc1)Cn1cnnn1 [QC-118, 4-Phenyl-1-tetrazol-1-yl-butan-2-one hydrochloride] | 20 ± 10 | – | IC50 [2, 6]: 2.6 ± 0.9 µM
CCCCn1ccnc1 [QC-122, 1-Butyl-1H-imidazole] | > 100 | > 100 | –
COC(=O)c1ncn(CC(=O)CCc2ccccc2)c1C(=O)OC [QC-123, 1-(2-Oxo-4-phenyl-butyl)-1H-imidazole-4,5-dicarboxylic acid dimethyl ester hydrochloride] | – | – | IC50 [1, 5]: > 100 µM; IC50 [2, 6]: > 100 µM
O=C(CCc1ccccc1)Cn1cnc(-c2ccccc2)c1 [QC-124, 4-Phenyl-1-(4-phenyl-imidazol-1-yl)-butan-2-one hydrochloride] | 145 ± 54 | 9 ± 2 | –
CS(=O)(=O)c1nccn1CC(=O)CCc1ccccc1 [QC-125, 1-(2-Methanesulfonyl-imidazol-1-yl)-4-phenyl-butan-2-one] | > 100 | > 100 | –
O=C(CCc1ccccc1)Cn1cnc([N+](=O)[O-])c1 [QC-127, 1-(4-Nitro-imidazol-1-yl)-4-phenyl-butan-2-one] | > 100 | > 100 | –
O=C(CCc1ccccc1)Cn1cnc2ccccc21 [QC-128, 1-Benzoimidazol-1-yl-4-phenyl-butan-2-one] | > 100 | > 100 | –
O=C(CCc1ccccc1)Cn1nnc2ccccc21 [QC-131, 1-Benzotriazol-1-yl-4-phenyl-butan-2-one] | > 100 | > 100 | –
COC(=O)c1cn(CC(=O)CCc2ccccc2)cn1 [QC-133, 1-(2-Oxo-4-phenyl-butyl)-1H-imidazole-4-carboxylic acid methyl ester] | > 100 | > 100 | –
COC(=O)c1cncn1CC(=O)CCc1ccccc1 [QC-134, 3-(2-Oxo-4-phenyl-butyl)-3H-imidazole-4-carboxylic acid methyl ester] | > 100 | 55 ± 2 | –
COC(=O)c1ncn(CC(=O)CCc2ccccc2)n1 [QC-135, 1-(2-Oxo-4-phenyl-butyl)-1H-[1,2,4]triazole-3-carboxylic acid methyl ester] | > 100 | > 100 | –
COC(=O)c1ncnn1CC(=O)CCc1ccccc1 [QC-136, 2-(2-Oxo-4-phenyl-butyl)-2H-[1,2,4]triazole-3-carboxylic acid methyl ester] | > 100 | > 100 | –
CC(=O)NCCc1c[nH]cn1 [QC-138, N-[2-(1H-Imidazol-4-yl)-ethyl]-acetamide] | > 100 | > 100 | –
O=C(Cn1ccnc1)c1ccccc1 [QC-141, 2-Imidazol-1-yl-1-phenyl-ethanone hydrochloride] | – | – | IC50 [1, 7]: > 100 µM; IC50 [2, 8]: 28 ± 4 µM
O=C(Cn1ccnc1)c1ccc(Cl)cc1 [QC-142, 1-(4-Chlorophenyl)-2-imidazol-1-yl-ethanone hydrochloride] | – | – | IC50 [1, 7]: 20 ± 8 µM; IC50 [2, 8]: 4 ± 2 µM
c1ccc2[nH]c(NCCCCCN3CCCCC3)nc2c1 [QC-144, (1H-Benzoimidazol-2-yl)-(5-piperidin-1-yl-pentyl)-amine] | – | – | IC50 [1, 9]: > 100 µM; IC50 [2, 10]: > 100 µM
Nc1nc2cc(OCCCCN3CCCCC3)ccc2[nH]1 [QC-146, 5-(4-Piperidin-1-yl-butoxy)-1H-benzoimidazol-2-ylamine dihydrochloride 3/2 hydrate] | – | – | IC50 [1, 9]: > 100 µM; IC50 [2, 10]: > 100 µM
Cn1c(NCCc2c[nH]cn2)nc2ccccc21 [QC-147, [2-(1H-Imidazol-4-yl)-ethyl]-(1-methyl-1H-benzoimidazol-2-yl)-amine dihydrochloride] | – | – | IC50 [1, 7]: > 100 µM; IC50 [2, 8]: > 100 µM
